Measured values reported in publication PMC8216263 (Pharmaceutical Biology, 2021).

Experiments:
OCT2 = molecular target: T1, OCT2 (Homo sapiens, UniProt O15244); assay: Inhibition of OCT2-mediated 14C-TEA uptake in S2-OCT2 cells; type: cell-based; conditions: GA at 150 and 500 μg/L; PCA 100 to 1000 μg/L; p < 0.05 vs control
T1 construct: host or cells: S2 (second portion of proximal tubule) cells
T1 sequence (O15244 1-555): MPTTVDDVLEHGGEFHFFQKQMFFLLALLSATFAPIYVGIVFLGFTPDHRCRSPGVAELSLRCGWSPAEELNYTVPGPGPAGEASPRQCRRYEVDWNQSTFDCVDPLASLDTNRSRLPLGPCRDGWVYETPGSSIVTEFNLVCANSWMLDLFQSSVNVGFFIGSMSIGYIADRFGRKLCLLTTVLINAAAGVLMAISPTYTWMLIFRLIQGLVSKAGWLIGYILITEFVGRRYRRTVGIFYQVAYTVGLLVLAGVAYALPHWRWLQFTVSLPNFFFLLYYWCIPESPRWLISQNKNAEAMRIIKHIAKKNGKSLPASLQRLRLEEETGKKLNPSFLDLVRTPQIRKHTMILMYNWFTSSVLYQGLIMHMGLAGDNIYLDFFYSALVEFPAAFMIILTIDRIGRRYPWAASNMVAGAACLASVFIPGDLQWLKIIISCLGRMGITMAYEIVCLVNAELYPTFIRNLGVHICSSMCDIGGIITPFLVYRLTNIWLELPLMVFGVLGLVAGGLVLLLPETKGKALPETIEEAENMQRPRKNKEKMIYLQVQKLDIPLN
Protocol: Cells were cultured in DMEM supplemented with 10% FBS, 100 units/mL penicillin and 100 units/mL streptomycin. […] Cell culture flasks, 24-well cell culture plates, and transwell polycarbonate inserts (12 mm diameter, 0.4 μm pore size) were purchased from Corning Co-star Corp. (Bedford, MA).
The MDCK-OAT1, S2-OAT3, S2-OCT2 and HEK293-OATP1B1 cell lines were utilized in this study. […] Briefly, S2-OAT3, S2-OCT2 and S2-mock cells were trypsinized and uniformly suspended in the culture medium’s designated volume to provide a density of 2.0 × 10^5 cells/mL. A 1.0-mL aliquot of the cell suspension was added into each well of 24-well insert plates. HEK293-OATP1B1, MDCK-OAT1 and their mock cells were seeded in 24-well plates at a density of 1.5 × 10^5 cells/well. […] Three washes terminated the experiment with ice-cold DPBS buffer after removing the incubation buffer. Cells were lysed with 400 μL of […] sodium hydroxide solution. The cell lysate and 3.0 mL of aquasol-2 scintillation fluid were put into a scintillation flask. […] The final concentration of DMSO in the assay was less than 0.1%. All experiments were performed in triplicate.

OATP1B1 = molecular target: T2, OATP1B1 (Homo sapiens, UniProt Q9Y6L6); assay: Inhibition of OATP1B1-mediated 3H-ES uptake in HEK293-OATP1B1 cells; type: cell-based; conditions: GA 50–5000 μg/L, PCA 10–1000 μg/L
T2 sequence (Q9Y6L6 1-691): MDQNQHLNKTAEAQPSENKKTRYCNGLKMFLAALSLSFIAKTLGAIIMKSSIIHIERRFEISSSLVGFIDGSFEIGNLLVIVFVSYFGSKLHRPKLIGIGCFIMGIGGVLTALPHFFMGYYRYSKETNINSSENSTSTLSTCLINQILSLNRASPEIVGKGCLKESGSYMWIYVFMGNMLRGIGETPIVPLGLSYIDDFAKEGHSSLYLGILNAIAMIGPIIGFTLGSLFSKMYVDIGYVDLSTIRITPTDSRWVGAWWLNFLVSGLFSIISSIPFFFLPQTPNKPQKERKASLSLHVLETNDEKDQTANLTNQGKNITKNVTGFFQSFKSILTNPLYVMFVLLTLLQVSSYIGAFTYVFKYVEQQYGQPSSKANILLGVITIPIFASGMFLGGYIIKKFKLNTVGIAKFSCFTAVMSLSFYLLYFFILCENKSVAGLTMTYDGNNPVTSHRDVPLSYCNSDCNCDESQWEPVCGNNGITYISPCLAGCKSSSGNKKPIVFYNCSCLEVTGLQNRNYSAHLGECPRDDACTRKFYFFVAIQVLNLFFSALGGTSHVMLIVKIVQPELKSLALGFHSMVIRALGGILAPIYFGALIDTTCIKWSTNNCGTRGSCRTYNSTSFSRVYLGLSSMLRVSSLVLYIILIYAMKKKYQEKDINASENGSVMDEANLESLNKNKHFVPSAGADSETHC
Excerpt: The human multidrug resistance protein (MDR)1-transfected Madin–Darby Canine Kidney (MDCK) cells, human breast cancer resistance protein (BCRP)-transfected MDCK cells, human organic anion transporter (OAT)1-transfected MDCK cells, OAT3-transfected second portion of proximal tubule (S2) cells, human organic cation transporter (OCT)2-transfected S2 cells, human organic anion transporting polypeptide (OATP)1B1-transfected human embryonic kidney 293 (HEK293) cells and their MOCK cells were kindly provided by Japan Fuji Biomedical Co., Ltd. (Osaka, Japan). Cells were cultured in DMEM supplemented with 10% FBS, 100 units/mL penicillin and 100 […]. All cells were incubated in a humidified atmosphere of 95% air and 5% CO2 at 37 °C. A solution of 0.25% trypsin-EDTA was used to detach the cells from flasks. Cell culture flasks, 24-well cell culture plates, and transwell polycarbonate inserts (12 mm diameter, 0.4 μm pore size) were purchased from Corning Co-star Corp. (Bedford, MA).
Concentration-dependent inhibitions were conducted to study GA and PCA’s inhibitory effects on uptake transporters OAT1, OAT3, OCT2 and OATP1B1. The MDCK-OAT1, S2-OAT3, S2-OCT2 and HEK293-OATP1B1 cell lines were utilized in this study. […] The radioactive intensity was measured using a Tri-Carb 2910TR scintillator (PerkinElmer, Waltham, MA). […]

## O=C(O)c1ccc(O)c(O)c1 [PCA, protocatechuic acid]
OCT2
  effect on OCT2-mediated uptake of 14C-TEA: statistical decline
OATP1B1
  inhibitory effect on OATP1B1-mediated uptake of 3H-ES: no statistical differences
